According to patent US20240285502A1, “HAIR GROWTH AGENT” (ADJUVANT HOLDINGS CO., LTD., priority 2021, published 2024):

Test system: VEGF gene expression in human dermal papilla cells
Test: Evaluation of human dermal papilla cell VEGF gene expression (real-time PCR)
Assay type: cell-based
Conditions: 72 hours stimulation, relative to negative control group, GAPDH internal standard, FIG. 1
Protocol: The VEGF gene is expressed in dermal papilla cells, and contributes to expression of such effects as increase in hair shaft diameter and improving maximum hair shaft length and improving hair shaft elongation rate and hair shaft growth promotion at head hair, beard, eyebrows, and/or eyelashes. Human dermal papilla cells were therefore used, and evaluation was carried out with respect to increase in VEGF gene expression for the respective components. Human dermal papilla cells (Catalog No. CA60205a; derived from person; Toyobo Co., Ltd. (Japan)) were purchased, testing and evaluation being carried out with maintenance and culture of cells being performed as described in the protocol. As drugs for testing, drug solutions of the following respective concentrations (final concentrations) were prepared and used. • Comparative Example 1: 30 μM minoxidil • Working Example 1: 0.3125 μM phytosphingosine • Working Example 2: 1.25 μM phytosphingosine • Working Example 3: Liquid mixture of 30 μM minoxidil and 1.25 μM phytosphingosine A 24-well plate was seeded with human dermal papilla cells so as to obtain 6×10^3 thereof per well. Following culture for 1 day within a CO2 incubator (5% CO2; 37° C.), the culture medium was replaced with culture medium which contained the respective drugs for testing. The cell plate was thereafter returned to the CO2 incubator, and this was further cultured for 72 hours. […] The GAPDH gene was used as an internal standard, the amount of VEGF gene expression being calculated relative to the negative control group. […] Concentration of the recovered RNA was measured using a NanoDrop Lite (Catalog No. ND-LITE; Thermo Fisher Scientific K.K.), and this was stored at -80° C. until the following cDNA creation procedure. […] II cDNA synthesis 5× Ready Mix (Catalog No. NE-LS64; Nippon Genetics Co., Ltd. (Japan)) was used to synthesize cDNA. […] II cDNA synthesis 5× Ready Mix was added to 16 μL of this sample solution, and this was agitated by vortexing. […]

Row | Compound | change in amount of expression of the VEGF gene
1 | CCCCCCCCCCCCCC[C@@H](O)[C@@H](O)[C@@H](N)CO [Working Example 2, phytosphingosine] | increase in dosage-dependent fashion in the amount of expression of the VEGF gene as compared with the control group
2 | CCCCCCCCCCCCCC[C@@H](O)[C@@H](O)[C@@H](N)CO [Working Example 1, phytosphingosine] | increase in dosage-dependent fashion in the amount of expression of the VEGF gene as compared with the control group
3 | CCCCCCCCCCCCCC[C@@H](O)[C@@H](O)[C@@H](N)CO [phytosphingosine] | significantly greater than that which was produced as a result of action of minoxidil
